Results on 80 compounds are retold here after the METLIN SMRT retention time set (Domingo-Almenara et al. 2019).

The series is described as follows: gradient 5% acetonitrile 3 min, to 50% in 2 min, to 85% in 15 min, held 3 min, 100 µL/min. The settings on record: column: Zorbax Extend-C18 2.1 x 50 mm; eluents: water / acetonitrile, 0.1% formic acid. Summed up:
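The mobile phases were water and acetonitrile, each with 0.1% formic acid, pumped at 100 μL/min through a Zorbax Extend-C18 column (2.1 × 50 mm, 1.8 μm). Pure standards were injected as mixtures of ~100 molecules and detected by a quadrupole time-of-flight mass spectrometer in positive and negative ionization mode. Retention time came from computationally picked adduct peaks, each inspected by hand.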
The compound `O=C(NCc1ccc2c(c1)OCO2)c1ccc2ccnc(N3CCN(C(=O)c4ccco4)CC3)c2c1` returned an RP-LC retention time of 679 s.

Regarding `Cn1c(CNc2nc3ccncc3n(Cc3ccccc3)c2=O)nc2ccccc21`, the RP-LC retention time amounted to 571 s.

`Cc1oc(-c2[nH]ncc2C(=O)N2CCCC2)cc1S(=O)(=O)Nc1cccc(F)c1` returned an RP-LC retention time of 704 s.

With `Cc1ccc(CN2CCCn3nc(C(=O)NCCCN4CCOCC4)cc3C2=O)cc1`, the RP-LC retention time is 618 s.

As to `Cc1ccc(CNS(=O)(=O)c2cc(-c3nc(C(C)(C)C)cs3)cs2)cc1`, the RP-LC retention time is 1320 s.

As for `COCCn1c(CCCC(=O)NCc2ccc3c(c2)OCO3)nc2cccnc21`, the RP-LC retention time was determined as 632 s.

`O=C(Nc1cccc(-c2nnc3n2CCCC3)c1)c1nccc2ccccc12` yielded an RP-LC retention time of 769 s.

Regarding `O=C(Nc1ccc(F)cc1F)C1CCCN(S(=O)(=O)c2c[nH]c(C(=O)N3CCCC3)c2)C1` (stereo not given), the RP-LC retention time stood at 792 s.

As to `O=S(=O)(NCc1cccs1)c1cc(-c2noc(C3CCCC3)n2)cs1`, the RP-LC retention time is 1110 s.

In turn, `CC1CCN(C(=O)c2ccc(CN3CCN(Cc4ccc(F)cc4)C(=O)C3=O)cc2)CC1` displayed an RP-LC retention time of 783 s.

As to `O=S(=O)(NCc1ccccc1)c1ccc2c(c1)-c1oncc1CO2`, the RP-LC retention time stood at 860 s.

As to `O=C(c1ccc(CS(=O)c2ccccc2)o1)N1CCN(c2ccccn2)CC1` (stereo not given), the RP-LC retention time came out at 560 s.

As to `CN(C)S(=O)(=O)c1ccc2c(c1)N(CC(=O)N1CCN(c3ccccn3)CC1)CCS2`, the RP-LC retention time is 640 s.

`Cc1ccc(-c2nnc(-c3nn(C)c4c3CN(S(=O)(=O)c3ccc(C(C)C)cc3)CC4)o2)cc1`: the RP-LC retention time turned out to be 1160 s.

`Cc1c(Cl)cccc1NC(=O)N1CCC(OC2CCN(S(C)(=O)=O)CC2)CC1` came in with an RP-LC retention time of 743 s.

`Cc1nn(CC(=O)NCCCN2CCCC2=O)c(=O)c2nc(-c3ccccc3)sc12` gave an RP-LC retention time of 668 s.

Consider `Cc1cccc(NC(=O)Nc2ccc(-c3cn4ccc(C)nc4n3)cc2)c1`, for which the RP-LC retention time was determined as 670 s.

On to `CSc1nc(N2CCCC2)c2cnn(CCNC(=O)CSc3nnnn3C)c2n1`, for which the RP-LC retention time came out at 651 s.

In turn, `CCCCNC(=O)C1CCCN(C(=O)Nc2ccc(NC(=O)NC3CCCC3)cc2)C1` (stereo not given) showed an RP-LC retention time of 728 s.

Take `COCCN1C(=O)c2ccccc2C(C(=O)NCc2ccc(Cl)cc2)C12CCCC2` (stereo not given): the RP-LC retention time worked out at 925 s.

`Cc1noc(C)c1C(=O)N1CCCC1c1ccccc1Cl` (stereo not given) had an RP-LC retention time of 838 s.

`CCc1ccc(NS(=O)(=O)c2ccc3c(c2)CCCC(=O)N3)cc1` registered an RP-LC retention time of 794 s.

On to `CCCCN(CC(=O)N1CCNCC1)C(=O)c1ccc(Br)cc1`, for which the RP-LC retention time came out at 589 s.

In the case of `Cc1ccc(C)c(NC(=O)c2cnn3c2CCCC3)c1`, the RP-LC retention time was determined as 777 s.

As to `CCN1CCN(c2ccc(-c3ccc(OC)c(S(=O)(=O)N4CCCC4)c3)nn2)CC1`, the RP-LC retention time was found to be 606 s.

Compound `CCOC(=O)C1CCN(c2ncnc3c2cnn3-c2ccccc2)CC1` had an RP-LC retention time of 944 s.

Compound `c1cn(-c2cc(N3CCSCC3)ncn2)cn1` returned an RP-LC retention time of 591 s.

In the case of `CC1CCN(C(=O)C2CCN(S(=O)(=O)c3cc(C(=O)N4CCCCC4)n(C)c3)CC2)CC1`, the RP-LC retention time stood at 803 s.

`CC(C)Oc1ccc(CNC(=O)c2cc(-c3ccncc3)cn2C)cc1` displayed an RP-LC retention time of 640 s.

Compound `COc1ccc(NC(=O)N2CCC(n3cnc4cccnc43)CC2)c(OC)c1` registered an RP-LC retention time of 633 s.

Take `O=S(=O)(NC1CCCCC1)c1ccc(-c2nnc(C3CC3)o2)o1`: the RP-LC retention time was determined as 940 s.

In turn, `CC(C)(C)OC(=O)COc1cc(O)c2c(=O)cc(-c3ccccc3)oc2c1` came in with an RP-LC retention time of 1210 s.

For `COCCCNC(=O)c1cc2c(n(-c3ccc(C(C)C)cc3)c1=O)CCCC2=O`, the RP-LC retention time was 882 s.

On to `COc1ccc(Cl)cc1NS(=O)(=O)c1c(C)sc(C)c1-c1cc(C)[nH]n1`, for which the RP-LC retention time worked out at 1040 s.

In the case of `CN(C)C(=O)c1n[nH]c2c1CN(C(=O)c1ccc(F)cc1)CC2`, the RP-LC retention time stood at 622 s.

On to `Cc1ccc(-n2nc(N3CCCC(C(=O)NCc4ccc(F)cc4)C3)ccc2=O)cc1Cl` (stereo not given), for which the RP-LC retention time was determined as 929 s.

In turn, `O=C(Nc1ccc2sccc2c1)c1coc2ccccc2c1=O` displayed an RP-LC retention time of 1070 s.

Take `COc1ccccc1-c1nnc(-c2cc(S(=O)(=O)N3CCCCCC3)ccc2Cl)o1`: the RP-LC retention time worked out at 1130 s.

With `O=C(Cn1cc2c(n1)CCCC2)N1CCC(Cc2ccccc2)CC1`, the RP-LC retention time is 965 s.

`Cc1cc(OCCCCOc2ccc(C#N)cc2)ccc1[N+](=O)[O-]` gave an RP-LC retention time of 1250 s.

In turn, `O=C(NCCN1CCN(C(=O)NCCCc2ccccc2)CC1)c1ccc2c(c1)OCO2` returned an RP-LC retention time of 581 s.

For `CCC(=O)OCCN1C(=O)c2cccc3c(N4CCCCC4)ccc(c23)C1=O`, the RP-LC retention time was found to be 1170 s.

Take `CC(C)Cc1nc(N2CCNCC2)c(C#N)c2c1COC(C)(C)C2`: the RP-LC retention time stood at 683 s.

`CCCNc1cc(N2CCC(CCC(=O)NCc3ccccc3Cl)CC2)ncn1` returned an RP-LC retention time of 718 s.

`CC1(O)C=CC(=O)C=C1` showed an RP-LC retention time of 551 s.

On to `CSc1ccc(CNC(=O)C2CCN(c3cnc4nccnc4c3)CC2)cc1`, for which the RP-LC retention time worked out at 702 s.

`Cc1ccnc(NC(=O)C2CCN(S(=O)(=O)c3cc(C(=O)N4CCCC4)n(C)c3)CC2)c1`: the RP-LC retention time was 674 s.

`CCOC(=O)N1CCN(c2cc(C(=O)O)c3cc(NC(=O)CC)ccc3n2)CC1`: the RP-LC retention time stood at 553 s.

As for `COc1ccc(-c2nc3cnccn3c2Nc2ccc(C(C)C)cc2)cc1`, the RP-LC retention time came out at 1040 s.

For the compound `Cc1csc(-c2cc(S(=O)(=O)N3CCOCC3)cn2CC(=O)N2CCCC2)n1`, the RP-LC retention time came to 770 s.

Regarding `Cc1cc(C)cc(NS(=O)(=O)c2cc(-c3[nH]ncc3C(=O)N3CCCCC3)oc2C)c1`, the RP-LC retention time amounted to 807 s.

For the compound `O=C(NCc1ccccc1Br)c1cn2ccccc2n1`, the RP-LC retention time was 736 s.

Turning to `O=C(NC1CCCC1)N1CCC(OCc2ccccc2)C1` (stereo not given), the RP-LC retention time worked out at 834 s.

As for `COc1cccc(CNC(=O)Cn2ccc3ccc(N4CCOCC4)nc32)c1`, the RP-LC retention time amounted to 858 s.

The compound `CC(=O)c1ccc(S(=O)(=O)N(Cc2cccs2)Cc2cccn2C)cc1` came in with an RP-LC retention time of 983 s.

Compound `O=C(NC1CCCCCC1)c1cccc(CN2C(=O)C3CCCN3C(=O)c3ccccc32)c1` (stereo not given) came in with an RP-LC retention time of 865 s.

Compound `Cc1ccccc1OCC(=O)NC[C@@]12CCC[C@H]1N(C)C(=O)CC2` displayed an RP-LC retention time of 755 s.

Regarding `Cc1ccccc1Oc1ccc(S(=O)(=O)NCCC(=O)O)cc1`, the RP-LC retention time amounted to 759 s.

As for `COc1cc(NC(=O)Cc2csc3nc(-c4ccc(C)c(C)c4)cn23)cc(OC)c1`, the RP-LC retention time was 772 s.

`CCNC(=O)c1cc(N2CCOCC2)nc2ccccc12` had an RP-LC retention time of 563 s.

With `Cc1nn(CC(=O)NCCc2c[nH]c3ccccc23)c(=O)c2noc(C)c12`, the RP-LC retention time stood at 708 s.

Compound `Fc1cccc(Cn2cc(-c3noc(-c4ccc5c(c4)OCO5)n3)nn2)c1` had an RP-LC retention time of 962 s.

For `COc1ccc2c(c1)-c1nc(NC(=O)c3ccccc3Br)sc1CC2`, the RP-LC retention time came to 1140 s.

`CCCN1C(=O)COc2ccc(-c3csc(NC(=O)COc4ccc(Cl)cc4Cl)n3)cc21` displayed an RP-LC retention time of 1210 s.

Consider `CCOc1ccc(NS(=O)(=O)c2c(C)sc(C)c2-c2cc(C(F)(F)F)on2)cc1`, for which the RP-LC retention time amounted to 1220 s.

Compound `O=C(c1cc(F)ccc1Cl)N1CCN(c2ncccc2-c2nnc(C3CC3)o2)CC1` had an RP-LC retention time of 834 s.

`Cc1csc(-n2nc(C)c(CC(=O)Nc3ccc(Cl)cc3)c2C)n1` had an RP-LC retention time of 997 s.

As to `COC(=O)C(Cc1ccccc1)NC(=O)Nc1c(-c2ccc(C)cc2)nc2ccccn12` (stereo not given), the RP-LC retention time was determined as 686 s.

For `Cc1ccc(CN2CCN(CC(=O)Nc3ccc(C)cc3)C(=O)C2=O)cc1`, the RP-LC retention time worked out at 786 s.

As to `COC(=O)c1ccc(-c2nc3cnccn3c2Nc2ccc(C)cc2C)cc1`, the RP-LC retention time came to 1010 s.

`C=CCn1nc2ccc(S(=O)(=O)N3CCC(C)CC3)cn2c1=O`: the RP-LC retention time was 843 s.

Turning to `CCCn1ncc(N2CCC(C(=O)Nc3ccc(OC)cc3OC)CC2)cc1=O`, the RP-LC retention time is 723 s.

On to `COC(=O)c1cc2c(=O)n(-c3cc(OC)c(OC)c(OC)c3)ccc2nc1C`, for which the RP-LC retention time amounted to 751 s.

For `CCOC(=O)N1CCN(C(=O)Cn2nc(-c3ccccc3)cc(N)c2=O)CC1`, the RP-LC retention time is 673 s.

Compound `COc1cccc(-c2ccnc3nc(CCc4ccccc4)nn23)c1` had an RP-LC retention time of 970 s.

`Cc1ccc2nc(-c3ccccc3F)cc(C(N)=O)c2c1` yielded an RP-LC retention time of 778 s.

In the case of `COc1cccc(NS(=O)(=O)c2cc3n(c2)CCN(CC(C)C)C3=O)c1`, the RP-LC retention time amounted to 784 s.

`CC(=O)N1CCC(C(=O)Nc2cc(-c3nnc(C)o3)sc2C)CC1` returned an RP-LC retention time of 648 s.

`CCCNc1cc(N2CCCC(CCC(=O)NCC3CCCO3)C2)ncn1` (stereo not given) yielded an RP-LC retention time of 608 s.

`Cn1nnc2ccc(-c3noc(-c4cc(F)ccc4Cl)n3)cc21` returned an RP-LC retention time of 1060 s.
